Data on 31 molecules can be found in patent publication US20240208953A1, “"Cyclopenta[c]pyrrol Negative Allosteric Modulators of NR2B"” (Novartis AG, priority 2021, published 2024).

SMILES strings stand for the structures.

The test addresses NR2B (Rattus norvegicus (Rat), UniProt Q00960). Description: NR2B rat cortical neuron calcium influx assay. The test is classed as cell-based. The settings on record: rat cortical neurons, glutamate and glycine stimulated calcium influx. The source says:
Example 1: NR2B Rat Cortical Neuron Calcium Influx Assay Protocol
Embryonic day 18 timed pregnant Sprague Dawley rats were euthanized according to Institutional Animal Care and Use Committee (IACUC) protocol. After cutting medially through the skin and exposing the uterus and embryos, fetuses were removed and placed in cold Hibernate medium. Each embryo's brain was extracted and cerebral cortices were isolated by removing the midbrain and meninges. The dissected cortices were then dissociated into the neurons using papain dissociation system (Worthington Biochemical Corporation) according the manufacturer's protocol.
Dissociated neurons were counted and plated into 384-well poly-D-lysine coated plates (Corning® BioCoat™) at a density of 20,000 cells/well in 30 μL of Neurobasal/B27 complete medium. Neurons were cultured at 37° C. for 2 days. On the assay day, medium was removed and cells were incubated with 20 μL/well of calcium dye (Calcium 6 Assay Kit, Molecular Devices) suspended in HBSS with 1.8 mM Ca^2+ (Ca-HBSS) according to the manufacturer's instruction.
Compounds of interest from 10 mM stock were serially diluted into 3× of desired concentrations in 1.8 mM Ca-HBSS, and 10 μL were added to the wells. Compound and the neurons were incubated at 37° C. for 2 hours in the dark.
On FDSS7000EX (Hamamatsu Photonics), a fluorescence measuring instrument, 10 μL of 4× ligand solution containing glutamate and glycine made in 1.8 mM Ca^2+-HBSS were added to each well. The fluorescent signals were collected before and after the addition of ligands for a total of 2 minutes. The data were converted to a ratio of the peak fluorescence to the fluorescence at the beginning of the measurement.
Each data point was measured in duplicates. Dose response curves were used to identify IC50 and maximal inhibition values. IC50 represents the concentration in μM of compound at which there is a half-maximal compound effect. Maximal inhibition of a compound is expressed as a percent of the highest inhibition of activity over a no compound control.

Sequence of NR2B (Q00960 27-1482, other chains not shown): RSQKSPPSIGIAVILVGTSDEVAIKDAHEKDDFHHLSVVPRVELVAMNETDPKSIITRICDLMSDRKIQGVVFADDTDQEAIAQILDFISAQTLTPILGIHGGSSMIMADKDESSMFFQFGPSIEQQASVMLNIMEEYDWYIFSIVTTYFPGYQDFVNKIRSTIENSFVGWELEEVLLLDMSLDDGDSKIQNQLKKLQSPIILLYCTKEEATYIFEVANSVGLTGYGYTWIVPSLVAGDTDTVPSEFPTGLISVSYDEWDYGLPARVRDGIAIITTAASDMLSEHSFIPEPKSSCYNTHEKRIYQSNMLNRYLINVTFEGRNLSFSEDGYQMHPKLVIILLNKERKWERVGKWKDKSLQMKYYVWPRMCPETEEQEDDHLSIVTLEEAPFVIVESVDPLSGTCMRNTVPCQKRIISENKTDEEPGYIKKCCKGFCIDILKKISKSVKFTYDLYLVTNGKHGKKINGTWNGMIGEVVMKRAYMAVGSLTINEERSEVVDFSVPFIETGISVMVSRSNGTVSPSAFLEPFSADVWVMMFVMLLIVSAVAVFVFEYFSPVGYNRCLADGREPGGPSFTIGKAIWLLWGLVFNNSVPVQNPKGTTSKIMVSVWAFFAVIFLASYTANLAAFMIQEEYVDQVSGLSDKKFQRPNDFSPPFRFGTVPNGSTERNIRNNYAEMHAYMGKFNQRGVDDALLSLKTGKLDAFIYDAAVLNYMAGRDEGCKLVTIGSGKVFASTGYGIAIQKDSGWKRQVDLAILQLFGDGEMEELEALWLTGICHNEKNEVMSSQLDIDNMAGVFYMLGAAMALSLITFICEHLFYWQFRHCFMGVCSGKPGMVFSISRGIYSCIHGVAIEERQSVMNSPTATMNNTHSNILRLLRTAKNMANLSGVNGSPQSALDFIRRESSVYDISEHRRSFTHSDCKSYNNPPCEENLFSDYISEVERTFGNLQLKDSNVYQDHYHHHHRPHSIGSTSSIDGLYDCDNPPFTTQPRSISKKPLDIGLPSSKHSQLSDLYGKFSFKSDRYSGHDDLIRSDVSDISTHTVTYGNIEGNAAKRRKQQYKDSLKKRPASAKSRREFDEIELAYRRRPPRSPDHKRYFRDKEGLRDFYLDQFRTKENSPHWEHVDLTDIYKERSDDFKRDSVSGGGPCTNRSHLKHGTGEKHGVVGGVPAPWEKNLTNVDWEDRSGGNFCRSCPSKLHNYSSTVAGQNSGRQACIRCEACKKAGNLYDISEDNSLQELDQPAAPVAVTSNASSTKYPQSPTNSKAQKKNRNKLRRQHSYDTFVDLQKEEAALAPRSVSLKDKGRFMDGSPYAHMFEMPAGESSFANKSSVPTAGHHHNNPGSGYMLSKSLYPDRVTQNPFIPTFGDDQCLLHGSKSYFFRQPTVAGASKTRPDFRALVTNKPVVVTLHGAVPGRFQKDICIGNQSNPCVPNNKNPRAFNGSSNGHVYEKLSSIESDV

`O=C1CCc2cc([C@H](O)CN3C[C@H]4C[C@H](Oc5c(F)cccc5F)C[C@@]4(O)C3)ccc2N1` (single isomer, unassigned) [Example 27B]: the half-maximal inhibitory concentration (IC50) (usually the midpoint of a concentration-inhibition curve) was 290 nM.
The result for `O=C1Nc2c(F)cc([C@@H](O)CN3C[C@H]4C[C@H](Oc5ccccc5)C[C@@]4(O)C3)cc2C[C@@H]1F` [Example 19] reads 8.7 nM; that for `O=C1CCc2cc([C@@H](O)CN3C[C@H]4C[C@H](Oc5cccc(F)c5F)C[C@@]4(O)C3)ccc2N1` (single isomer, unassigned) [Example 24A], 16 nM.
In the case of `O=C1CCc2cc([C@H](O)CN3C[C@H]4C[C@H](Oc5ccccc5F)C[C@@]4(O)C3)ccc2N1` [Example 5B, 6-((S)-2-((3aS,5S,6aR)-5-(2-fluorophenoxy)-3a-hydroxyhexahydrocyclopenta[c]pyrrol-2(1H)-yl)-1-hydroxyethyl)-3,4-dihydroquinolin-2(1H)-one], the IC50 was 130 nM.
As to `O=C1CCc2cc([C@H](O)CN3C[C@H]4C[C@H](Oc5ccccc5F)C[C@@]4(O)C3)cc(F)c2N1` (single isomer, unassigned) [Example 6B], the concentration for half-maximal inhibition (IC50) amounted to 1060 nM.
As for `O=C1CCCc2cc([C@H](O)CN3C[C@H]4C[C@H](Oc5ccccc5)C[C@@]4(O)C3)cc(F)c2N1` (single isomer, unassigned) [Example 30B], the IC50 turned out to be 17 nM.
For the molecule `O=C1Nc2ccc([C@H](O)CN3C[C@H]4C[C@H](Oc5ccccc5F)C[C@@]4(O)C3)cc2CCO1` (single isomer, unassigned) [Example 12B], the IC50 worked out at 0.25 nM.
For `O=c1[nH]c2c(F)cc([C@@H](O)CN3C[C@H]4C[C@H](Oc5ccccc5)C[C@@]4(O)C3)cc2cc1F` (single isomer, unassigned) [Example 20A] the value was 2 nM.
For `O=C1CCc2cc([C@H](O)CN3C[C@@H]4C[C@@H](Oc5ccc(F)cc5)C[C@]4(O)C3)ccc2N1` (single isomer, unassigned) [Example 22D] the value was 1.6 nM.
On to `O=C1CCc2cc([C@@H](O)CN3C[C@H]4C[C@H](Oc5ccc(F)cc5F)C[C@@]4(O)C3)ccc2N1` (single isomer, unassigned) [Example 25A], for which the IC50 is over 1100 nM.
The result for `O=C1CCc2cc([C@H](O)CN3C[C@H]4C[C@H](Oc5ccc(F)cc5F)C[C@@]4(O)C3)ccc2N1` (single isomer, unassigned) [Example 25B] reads 14 nM.
The result for `O=C1CCc2cc([C@@H](O)CN3C[C@H]4C[C@H](Oc5cc(F)ccc5F)C[C@@]4(O)C3)ccc2N1` (single isomer, unassigned) [Example 26A] reads 250 nM.
The result for `O=C1CCc2cc([C@H](O)CN3C[C@H]4C[C@H](Oc5ccc(F)cc5)C[C@@]4(O)C3)ccc2N1` (single isomer, unassigned) [Example 22B] reads 420 nM; that for `O=C1Nc2c(cc([C@H](O)CN3C[C@H]4C[C@H](Oc5ccccc5)C[C@@]4(O)C3)c(F)c2F)CO1` (single isomer, unassigned) [Example 38B], 7.8 nM.
Consider `O=C1CCc2cc([C@H](O)CN3C[C@H]4C[C@H](Oc5cccc(F)c5)C[C@@]4(O)C3)ccc2N1` (single isomer, unassigned) [Example 23B], for which the IC50 was determined as 280 nM.
For `O=c1[nH]c2ccc([C@H](O)CN3C[C@H]4C[C@H](Oc5ccccc5)C[C@@]4(O)C3)cc2o1` (single isomer, unassigned) [Example 39B] the value was 86 nM; for `O=c1[nH]c2ccc([C@@H](O)CN3C[C@H]4C[C@H](Oc5ccccc5F)C[C@@]4(O)C3)cc2o1` (single isomer, unassigned) [Example 40A], 6.9 nM; for `CC1(C)Cc2cc([C@H](O)CN3C[C@H]4C[C@H](Oc5ccccc5)C[C@@]4(O)C3)ccc2NC1=O` (single isomer, unassigned) [Example 11B], 2.6 nM.
For `O=C1CCc2cc([C@H](O)CN3C[C@@H]4C[C@@H](Oc5ccc(F)cc5F)C[C@]4(O)C3)ccc2N1` (single isomer, unassigned) [Example 25D] the value was 0.22 nM.
As for `O=C1CCCc2cc([C@H](O)CN3C[C@H]4C[C@H](Oc5ccccc5F)C[C@@]4(O)C3)ccc2N1` (single isomer, unassigned) [Example 43B], the IC50 came out at 1.2 nM.
In the case of `O=C1CCc2cc([C@@H](O)CN3C[C@H]4C[C@H](Oc5c(F)cccc5F)C[C@@]4(O)C3)ccc2N1` (single isomer, unassigned) [Example 27A], the 50% inhibitory concentration (IC50) is over 1100 nM.
Take `O=c1[nH]c2ccc([C@@H](O)CN3C[C@H]4C[C@H](Oc5ccccc5)C[C@@]4(O)C3)cc2o1` (single isomer, unassigned) [Example 39A]: the IC50 was 26 nM.
As to `O=C1Nc2c(F)cc([C@H](O)CN3C[C@H]4C[C@H](Oc5ccccc5)C[C@@]4(O)C3)c(F)c2CO1` (single isomer, unassigned) [Example 37B], the IC50 was determined as 6.5 nM.
Regarding `O=C1CCc2cc([C@@H](O)CN3C[C@H]4C[C@H](Oc5ccc(F)cc5)C[C@@]4(O)C3)ccc2N1` (single isomer, unassigned) [Example 22A], the IC50 stood at 23 nM.
On to `O=C1CCc2cc([C@H](O)CN3C[C@H]4C[C@H](Oc5cccc(F)c5F)C[C@@]4(O)C3)ccc2N1` (single isomer, unassigned) [Example 24B], for which the IC50 was 57 nM.
For `O=C1COCc2cc([C@H](O)CN3C[C@H]4C[C@H](Oc5ccccc5)C[C@@]4(O)C3)cc(F)c2N1` (single isomer, unassigned) [Example 32B], the IC50 stood at 600 nM.
The result for `O=C1Cc2cc([C@H](O)CN3C[C@H]4C[C@H](Oc5ccccc5)[C@H](O)[C@@]4(O)C3)ccc2N1` [Example 3D, 5-((S)-2-((3aS,4S,5S,6aR)-3a,4-dihydroxy-5-phenoxyhexahydrocyclopenta[c]pyrrol-2(1H)-yl)-1-hydroxyethyl)indolin-2-one] reads 75 nM; that for `O=C1CCc2cc([C@@H](O)CN3C[C@H]4C[C@H](Oc5cccc(F)c5)C[C@@]4(O)C3)ccc2N1` (single isomer, unassigned) [Example 23A], 33 nM.
As to `O=C1Cc2cc([C@@H](O)CN3C[C@H]4C[C@H](Oc5ccccc5)[C@H](O)[C@@]4(O)C3)ccc2N1` [Example 3C, 5-((R)-2-((3aS,4S,5S,6aR)-3a,4-dihydroxy-5-phenoxyhexahydrocyclopenta[c]pyrrol-2(1H)-yl)-1-hydroxyethyl)indolin-2-one], the IC50 was found to be 400 nM.
For `O=c1[nH]c2ccc([C@H](O)CN3C[C@H]4C[C@H](Oc5ccccc5F)C[C@@]4(O)C3)cc2o1` (single isomer, unassigned) [Example 40B] the value was 28 nM; for `O=C1CCc2cc([C@H](O)CN3C[C@H]4C[C@H](Oc5cc(F)ccc5F)C[C@@]4(O)C3)ccc2N1` (single isomer, unassigned) [Example 26B], 470 nM.
